# Results: patent publication US9108921B2, “Therapeutic compounds and compositions” (AGIOS PHARMACEUTICALS, INC, priority 2014, dated 2015)
# Legend:
# Type in all cases: biochemical
# PKR WT = PKR WT (Homo sapiens, UniProt P30613); test: PKR WT enzymatic AC50 assay; conditions: wild type PKR
# Method: (§1) • PKR or PKR mutant enzyme solution was diluted in assay buffer. • 2 μL of test compound was added into wells first, and then 180 μL reaction mix was added. • Reactions mixture with test compound was assembled except for ADP, and plates were stored for 60 minutes at room temperature. • 20 uL ADP was added to start reaction at room temperature and reaction progress was measured as changes in absorbance at 340 nm wavelength at room temperature.
# (§2) Test Compound Preparation: • Test compound stock was made at 100× concentration in 100% DMSO (10 mM) • 1 to 3 dilutions were made for 11 points (i.e. 50 μl of first concentration added to 100 μl 100% DMSO to yield 3.33 mM, 50 μl of this added to 100 μl DMSO to yield 1.11 mM, and so forth) • 1 to 100 dilution into assay (2 μl in 200 μl) yielded starting concentration of 100 μM, decreasing 3 fold for 11 points. Assay Buffer: 100 mM KCl, 50 mM Tris 7.5, 5 mM MgCl2, 1 mM DTT, 0.03% BSA Reaction Mixture: PKR mutant enzyme: 80-400 ng/well; ADP: 0.22-1.65 mM; PEP: 0.1-0.5 mM; NADH: 180 uM; LDH: 0.5 units (Sigma#59023); DTT: 1 mM; BSA: 0.03%.
# PKR R510Q = PKR R510Q (Homo sapiens, UniProt P30613, R510Q); test: PKR Mutant Assay, AC50 against PKR R510Q; conditions: mutant PKR R510Q enzyme
# Method: as §1, §2
# PKR R532W = PKR R532W (Homo sapiens, UniProt P30613, R532W); test: PKR Mutant Assay, AC50 against PKR R532W; conditions: mutant PKR R532W enzyme
# Method: as §1, §2
# Chain of PKR WT (P30613 whole entry): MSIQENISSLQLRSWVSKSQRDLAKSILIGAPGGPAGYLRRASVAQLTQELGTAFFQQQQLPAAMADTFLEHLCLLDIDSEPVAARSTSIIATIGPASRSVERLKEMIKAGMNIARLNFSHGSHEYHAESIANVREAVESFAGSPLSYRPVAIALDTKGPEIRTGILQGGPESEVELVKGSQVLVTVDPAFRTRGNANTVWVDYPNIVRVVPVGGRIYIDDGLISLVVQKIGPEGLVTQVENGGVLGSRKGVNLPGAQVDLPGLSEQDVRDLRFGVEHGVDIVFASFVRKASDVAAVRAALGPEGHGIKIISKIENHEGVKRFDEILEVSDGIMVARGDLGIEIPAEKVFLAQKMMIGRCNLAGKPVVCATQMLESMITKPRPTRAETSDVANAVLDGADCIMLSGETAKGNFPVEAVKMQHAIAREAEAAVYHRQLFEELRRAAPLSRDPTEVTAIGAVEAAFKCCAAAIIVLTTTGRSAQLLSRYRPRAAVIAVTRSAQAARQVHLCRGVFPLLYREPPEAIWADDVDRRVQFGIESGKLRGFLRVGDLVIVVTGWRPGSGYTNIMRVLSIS
# Chain of PKR R532W (P30613 whole entry R532W): as the sequence (P30613 whole entry) above, with R532W counted along it
# Chain of PKR R510Q (P30613 whole entry R510Q): as the sequence (P30613 whole entry) above, with R510Q counted along it
SMILES,AC50 (PKR WT) [nM],AC50 (PKR R510Q) [nM],AC50 (PKR R532W) [nM]
"CC(C)CC1(O)CCN(C(=O)c2ccc(NS(=O)(=O)c3cc(F)cc4scnc34)cc2)CC1 [Compound 202, 6-fluoro-N-(4-(4-hydroxy-4-isobutylpiperidine-1-carbonyl)phenyl)benzo[d]thiazole-4-sulfonamide]",< 100,101 to 1000,< 100
CC(C)CC1(O)CCN(C(=O)c2ccc(NS(=O)(=O)c3cccc4csnc34)cc2)CC1 [Compound 376],101 to 1000,1010 to 10000,101 to 1000
"O=C(c1ccc(NS(=O)(=O)c2cccc3cccnc23)c(OC(F)F)c1)N1CCC(O)(c2ccccc2Cl)CC1 [Compound 263, N-(4-(4-(2-chlorophenyl)-4-hydroxypiperidine-1-carbonyl)-2-(difluoromethoxy)phenyl)quinoline-8-sulfonamide]",101 to 1000,101 to 1000,101 to 1000
CC(C)CC1(O)CCN(C(=O)c2ccc(NS(=O)(=O)c3ccc(F)c4nccnc34)cc2)CC1 [Compound 242],101 to 1000,101 to 1000,101 to 1000
CC(C)CC1(O)CCN(C(=O)c2ccc(NS(=O)(=O)c3csc4cccnc34)cc2)CC1 [Compound 269],101 to 1000,1010 to 10000,101 to 1000
"O=C(c1ccc(NS(=O)(=O)c2cccc3nccnc23)c(F)c1)N1CCC(O)(c2cccc(F)c2F)CC1 [Compound 262, N-(4-(4-(2,3-difluorophenyl)-4-hydroxypiperidine-1-carbonyl)-2-fluorophenyl)quinoxaline-5-sulfonamide]",101 to 1000,101 to 1000,101 to 1000
O=C(c1ccc(NS(=O)(=O)c2cccc3ccnnc23)cc1)N1CCC(O)(c2ccccc2Cl)CC1 [Compound 313],1010 to 10000,> 10000,> 10000
"O=C(c1ccc(NS(=O)(=O)c2cccc3cccnc23)cc1)N1CCC(O)(c2ccnc(F)c2)CC1 [Compound 247, N-[4-[4-(2-fluoropyridin-4-yl)-4-hydroxy-piperidine-1-carbonyl]phenyl]quinoline-8-sulfonamide]",101 to 1000,1010 to 10000,101 to 1000
CC(C)CC1(O)CCN(C(=O)c2ccc(NS(=O)(=O)c3ccnc4scnc34)cc2)CC1 [Compound 314],1010 to 10000,> 10000,> 10000
CN1C(=O)C=C2C=C(S(=O)(=O)Nc3ccc(C(=O)N4CCC(O)(Cc5ccccc5)CC4)cc3)C=CC21 (stereo not drawn) [Compound 268],101 to 1000,1010 to 10000,101 to 1000
"CC(C)CC1(O)CCN(C(=O)c2ccc(NS(=O)(=O)c3ccc(F)c4scnc34)cc2)CC1 [Compound 240, 7-fluoro-N-(4-(4-hydroxy-4-isobutylpiperidine-1-carbonyl)phenyl)benzo[d]thiazole-4-sulfonamide]",101 to 1000,101 to 1000,101 to 1000
"O=C(c1ccc(NS(=O)(=O)c2ccc(F)c3nccnc23)cc1)N1CCC(O)(c2ccccc2Cl)CC1 [Compound 234, N-(4-(4-(2-chlorophenyl)-4-hydroxypiperidine-1-carbonyl)phenyl)-8-fluoroquinoxaline-5-sulfonamide]",101 to 1000,101 to 1000,101 to 1000
O=C(c1ccc(NS(=O)(=O)c2ccc(F)c3scnc23)cc1)N1CCC(O)(c2ccccc2Cl)CC1 [Compound 231],101 to 1000,1010 to 10000,101 to 1000
N#Cc1cccc(C2(O)CCN(C(=O)c3ccc(NS(=O)(=O)c4cccc5cccnc45)cc3)CC2)c1 [Compound 278],101 to 1000,1010 to 10000,101 to 1000
"O=C(c1ccc(NS(=O)(=O)c2ccc(F)c3cccnc23)cc1)N1CCC(O)(CC2CCC2)CC1 [Compound 201, N-(4-(4-(cyclobutylmethyl)-4-hydroxypiperidine-1-carbonyl)phenyl)-5-fluoroquinoline-8-sulfonamide]",< 100,101 to 1000,< 100
O=C(c1ccc(NS(=O)(=O)c2cccc3cccnc23)cn1)N1CCC(O)(c2ccccc2)CC1 [Compound 298],1010 to 10000,> 10000,1010 to 10000
"O=C(c1ccc(NS(=O)(=O)c2cccc3nccnc23)cc1)N1CCC(O)(CCC(F)F)CC1 [Compound 230, N-(4-(4-(3,3-difluoropropyl)-4-hydroxypiperidine-1-carbonyl)phenyl)quinoxaline-5-sulfonamide]",101 to 1000,101 to 1000,101 to 1000
"O=C(c1ccc(NS(=O)(=O)c2cccc3csnc23)cc1)N1CCC(O)(c2ccccc2Cl)CC1 [Compound 244, N-(4-(4-(2-chlorophenyl)-4-hydroxypiperidine-1-carbonyl)phenyl)benzo[c]isothiazole-7-sulfonamide]",101 to 1000,1010 to 10000,101 to 1000
"O=C(c1ccc(NS(=O)(=O)c2cccc3nccnc23)cc1)N1CCC(O)(CC2CC2)CC1 [Compound 188, N-(4-(4-(cyclopropylmethyl)-4-hydroxypiperidine-1-carbonyl)phenyl)quinoxaline-5-sulfonamide]",< 100,101 to 1000,< 100
O=C(c1ccc(NS(=O)(=O)c2c[nH]c3cccnc23)cc1)N1CCC(O)(c2ccccc2Cl)CC1 [Compound 316],> 10000,> 10000,> 10000
"CCOCC1(O)CCN(C(=O)c2ccc(NS(=O)(=O)c3cccc4cccnc34)cc2)CC1 [Compound 246, N-(4-(4-(ethoxymethyl)-4-hydroxypiperidine-1-carbonyl)phenyl)quinoline-8-sulfonamide]",101 to 1000,1010 to 10000,< 100
O=C(c1ccc(NS(=O)(=O)c2csc3cccnc23)cc1)N1CCC(O)(c2ccccc2Cl)CC1 [Compound 280],101 to 1000,1010 to 10000,101 to 1000

# More lines, now with the values ahead:
AC50 (PKR WT) [nM],AC50 (PKR R510Q) [nM],AC50 (PKR R532W) [nM],SMILES
101 to 1000,1010 to 10000,101 to 1000,"Nc1c(F)ccc(S(=O)(=O)Nc2ccc(C(=O)N3CCC(O)(c4ccccc4Cl)CC3)cc2)c1N [Compound 256, 2,3-diamino-N-(4-(4-(2-chlorophenyl)-4-hydroxypiperidine-1-carbonyl)phenyl)-4-fluorobenzenesulfonamide]"
101 to 1000,1010 to 10000,1010 to 10000,CC(C)(O)CCC1(O)CCN(C(=O)c2ccc(NS(=O)(=O)c3cccc4cccnc34)cc2)CC1 [Compound 292]
< 100,< 100,< 100,CNc1nc2c(S(=O)(=O)Nc3ccc(C(=O)N4CCC(O)(c5ccccc5Cl)CC4)cc3)cccc2s1 [Compound 409]
> 10000,> 10000,> 10000,O=C(c1ccc(NS(=O)(=O)n2ccc3cccnc32)cc1)N1CCC(O)(c2ccccc2Cl)CC1 [Compound 318]
101 to 1000,1010 to 10000,101 to 1000,CC(C)CC1(O)CCN(C(=O)c2ccc(NS(=O)(=O)c3ccc(O)c4nccnc34)cc2)CC1 [Compound 289]
< 100,101 to 1000,< 100,"CC(C)CC1(CO)CCN(C(=O)c2ccc(NS(=O)(=O)c3cccc4nccnc34)cc2)CC1 [Compound 219, N-(4-(4-(hydroxymethyl)-4-isobutylpiperidine-1-carbonyl)phenyl)quinoxaline-5-sulfonamide]"
101 to 1000,101 to 1000,101 to 1000,"CC(C)CC1(O)CCN(C(=O)c2ccc(NS(=O)(=O)c3ccc(F)c(N)c3N)cc2)CC1 [Compound 254, 2,3-diamino-4-fluoro-N-(4-(4-hydroxy-4-isobutylpiperidine-1-carbonyl)phenyl)benzenesulfonamide]"
1010 to 10000,> 10000,1010 to 10000,O=C(c1ccc(NS(=O)(=O)c2cccc3cccnc23)nc1)N1CCC(O)(c2ccccc2)CC1 [Compound 306]
101 to 1000,1010 to 10000,101 to 1000,CCC1(O)CCN(C(=O)c2ccc(NS(=O)(=O)c3cccc4cccnc34)cc2)CC1 [Compound 267]
101 to 1000,1010 to 10000,101 to 1000,O=C(c1ccc(NS(=O)(=O)c2ccc(F)c3cccnc23)c(F)c1)N1CCC(O)(c2cccc(F)c2F)CC1 [Compound 277]
101 to 1000,1010 to 10000,101 to 1000,O=C(c1ccc(NS(=O)(=O)c2cccc3cccnc23)cc1)N1CCC(O)(Cc2cccnn2)CC1 [Compound 272]
1010 to 10000,> 10000,1010 to 10000,O=C(c1ccc(NS(=O)(=O)c2cccc3cccnc23)c(F)c1F)N1CCC(O)(c2ccccc2)CC1 [Compound 302]
> 10000,> 10000,> 10000,CC(C)CC1(O)CCN(C(=O)c2ccc(NS(=O)(=O)Cc3ccccn3)cc2)CC1 [Compound 324]
1010 to 10000,> 10000,1010 to 10000,CC(C)CC1(O)CCN(C(=O)c2ccc(NS(=O)(=O)c3c(F)ccc4ncsc34)cc2)CC1 [Compound 309]
